Results as given in patent publication US10597388B2, “Pyridazinone herbicides” (FMC CORPORATION, priority 2014, dated 2020).

Key:
Assay type in all cases: in vivo
[1] = system: barnyardgrass (Echinochloa crus-galli); assay: Test A greenhouse herbicide test, pre- and postemergence
Excerpt: (§1) Seeds of plant species selected from barnyardgrass (Echinochloa crus-galli), kochia (Kochia scoparia), ragweed (common ragweed, Ambrosia elatior), ryegrass, Italian (Italian ryegrass, Lolium multiflorum), crabgrass, large (large crabgrass, Digitaria sanguinalis), foxtail, giant (giant foxtail, Setaria faberii), momingglory (Ipomoea spp.), pigweed (Amaranthus retroflexus), velvetleaf (Abutilon theophrasti), wheat (Triticum aestivum), and corn (Zea mays) were planted into a blend of loam soil and sand and treated preemergence with a directed soil spray using test chemicals formulated in a non-phytotoxic solvent mixture which included a surfactant.
(§2) At the same time, plants selected from these crop and weed species and also blackgrass (Alopecurus myosuroides), and galium (catchweed bedstraw, Galium aparine) were planted in pots containing the same blend of loam soil and sand and treated with postemergence applications of test chemicals formulated in the same manner. Plants ranged in height from 2 to 10 cm and were in the one- to two-leaf stage for the postemergence treatment. Treated plants and untreated controls were maintained in a greenhouse for approximately 10 d, after which time all treated plants were compared to untreated controls and visually evaluated for injury. Plant response ratings, summarized in Table A, are based on a 0 to 100 scale where 0 is no effect and 100 is complete control. A dash (-) response means no test result.

corn (Zea mays) = assay: as above; conditions: Postemergence
Excerpt: as §1, §2

[2] = system: foxtail, giant (giant foxtail, Setaria faberii); assay: as above
Excerpt: as §1, §2

kochia (Kochia scoparia) = assay: as above
Excerpt: as §1, §2

[3] = system: pigweed (Amaranthus retroflexus); assay: as above
Excerpt: as §1, §2

[4] = system: ragweed (common ragweed, Ambrosia elatior); assay: as above
Excerpt: as §1, §2

[5] = system: ryegrass, Italian (Italian ryegrass, Lolium multiflorum); assay: as above
Excerpt: as §1, §2

[6] = system: wheat (Triticum aestivum); assay: as above; conditions: Postemergence
Excerpt: as §1, §2

[7] = system: blackgrass (Alopecurus myosuroides); assay: Test A greenhouse herbicide test, postemergence; conditions: for Blackgrass plant response rating: 0 to 100 scale, 0 is no effect, 100 is complete control
Outline: (§3)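 Seedlings in a loam soil and sand mix received formulated compound postemergence at the one- to two-leaf stage. Greenhouse holding lasts approximately 10 d, then injury is scored visually relative to untreated plants, 0 meaning no effect and 100 complete control.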

[8] = system: galium (catchweed bedstraw, Galium aparine); assay: Test A greenhouse herbicide test, postemergence
Outline: as §3

[9] = system: barnyardgrass (Echinochloa crus-galli); assay: Test B flooded paddy test; conditions: 250 g ai/ha, Flood; visual rating on scale of 0 to 100 where 0 is no effect and 100 is complete control; 13 to 15 d after treatment
Outline: (§4)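 Ratings use a 0-100 visual scale, where 100 is complete control, and compare treated plants with controls after 13 to 15 d of greenhouse growth. Compound went straight into paddy water kept 3 cm over the soil surface, applied to seedlings at the 2-leaf stage.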

[10] = system: ducksalad (Heteranthera limosa); assay: Test B flooded paddy test; conditions: 250 g ai/ha, Flood; visual rating on scale of 0 to 100 where 0 is no effect and 100 is complete control; 13 to 15 d after treatment
Outline: as §4

rice (Oryza sativa) = assay: Test B flooded paddy test; conditions: 250 g ai/ha, Flood; visual rating on scale of 0 to 100 where 0 is no effect and 100 is complete control; 13 to 15 d after treatment
Outline: as §4

[11] = system: sedge, umbrella (small-flower umbrella sedge, Cyperus difformis); assay: Test B flooded paddy test; conditions: 250 g ai/ha, Flood; visual rating on scale of 0 to 100 where 0 is no effect and 100 is complete control; 13 to 15 d after treatment
Outline: as §4

[12] = Postemergence, 125 g ai/ha, 0 to 100 scale where 0 is no effect and 100 is complete control
[13] = Postemergence, 500 g ai/ha, 0 to 100 scale, 0 is no effect, 100 is complete control
[14] = Preemergence, 125 g ai/ha, 0 to 100 scale where 0 is no effect and 100 is complete control
[15] = Preemergence, 500 g ai/ha, 0 to 100 scale where 0 is no effect and 100 is complete control
[16] = 125 g ai/ha, 0 to 100 scale where 0 is no effect and 100 is complete control
[17] = 500 g ai/ha, visual rating after approx. 10 d, 0 to 100 scale (0 no effect, 100 complete control)
[18] = Postemergence, 500 g ai/ha, visual rating after approx. 10 d, 0 to 100 scale (0 no effect, 100 complete control)

SMILES | Plant response rating, Barnyardgrass [1, 12] | Barnyardgrass plant response rating [1, 14] | Plant response rating, Barnyardgrass [1, 15] | Plant response rating, Corn (corn (Zea mays); [16]) | Plant response rating, Corn (corn (Zea mays); [17]) | Plant response rating, Foxtail, Giant [2, 12] | Plant response rating, Foxtail, Giant [2, 18] | Foxtail, Giant plant response rating [2, 14] | Plant response rating, Foxtail, Giant [2, 15] | Plant response rating, Kochia (kochia (Kochia scoparia); [12]) | Plant response rating, Kochia (kochia (Kochia scoparia); [18]) | Kochia plant response rating (kochia (Kochia scoparia); [14]) | Plant response rating, Kochia (kochia (Kochia scoparia); [15]) | Plant response rating, Pigweed [3, 12] | Plant response rating, Pigweed [3, 18] | Pigweed plant response rating [3, 14] | Plant response rating, Pigweed [3, 15] | Plant response rating, Ragweed [4, 12] | Plant response rating, Ragweed [4, 18] | Ragweed plant response rating [4, 14] | further results
COC(=O)Oc1c(Cl)nn(C)c(=O)c1-c1c(C)sc2ccc(Cl)cc12 [Compound 101] | 0 | 0 | 30 | 0 | 20 | 30 | 50 | 30 | 60 | 20 | 30 | 0 | 40 | 30 | 70 | 90 | 90 | 60 | 80 | 40 | Barnyardgrass plant response rating [1, 13]: 30; Plant response rating, Ragweed [4, 15]: 40; Plant response rating, Ryegrass, Italian [5, 12]: 30; Plant response rating, Ryegrass, Italian [5, 18]: 50; Ryegrass, Italian plant response rating [5, 14]: 60; Plant response rating, Ryegrass, Italian [5, 15]: 100; Plant response rating, Wheat [6, 16]: 0; Plant response rating, Wheat [6, 17]: 20; Plant response rating, Blackgrass [7, 16]: 20; Blackgrass plant response rating ([7]; 500 g ai/ha): 40; Plant response rating, Galium [8, 16]: 70; Plant response rating, Galium [8, 17]: 90; Plant response rating, Barnyardgrass [9]: 0; Plant response rating, Ducksalad [10]: 0; Plant response rating, Rice (rice (Oryza sativa)): 0; Plant response rating, Sedge, Umbrella [11]: 0
CCc1ccc2ccc(C)cc2c1-c1c(O)c(C)nn(C)c1=O [Compound 103] | 40 | 40 | 90 | 20 | 60 | 90 | 90 | 80 | 100 | 50 | 90 | 20 | 40 | 90 | 100 | 100 | 100 | 100 | 100 | 90 | Barnyardgrass plant response rating [1, 13]: 90; Plant response rating, Ragweed [4, 15]: 100; Plant response rating, Ryegrass, Italian [5, 12]: 100; Plant response rating, Ryegrass, Italian [5, 18]: 100; Ryegrass, Italian plant response rating [5, 14]: 90; Plant response rating, Ryegrass, Italian [5, 15]: 100; Plant response rating, Wheat [6, 16]: 0; Plant response rating, Wheat [6, 17]: 20; Plant response rating, Blackgrass [7, 16]: 70; Blackgrass plant response rating ([7]; 500 g ai/ha): 90; Plant response rating, Galium [8, 16]: 100; Plant response rating, Galium [8, 17]: 100; Plant response rating, Barnyardgrass [9]: 30; Plant response rating, Ducksalad [10]: 0; Plant response rating, Rice (rice (Oryza sativa)): 0; Plant response rating, Sedge, Umbrella [11]: 50
CCc1nn(C)c(=O)c(-c2c(C)oc3ccccc23)c1O [Compound 117] | 0 | 0 | 50 | 0 | 0 | 0 | 20 | 0 | 30 | 0 | 10 | 0 | 0 | 0 | 20 | 0 | 30 | 0 | 0 | 0 | Plant response rating, Barnyardgrass [1, 18]: 40; Plant response rating, Ragweed [4, 15]: 0; Plant response rating, Ryegrass, Italian [5, 12]: 0; Plant response rating, Ryegrass, Italian [5, 18]: 0; Ryegrass, Italian plant response rating [5, 14]: 0; Plant response rating, Ryegrass, Italian [5, 15]: 0; Plant response rating, Wheat [6, 16]: 0; Plant response rating, Wheat [6, 17]: 0; Plant response rating, Blackgrass [7, 16]: 0; Plant response rating, Blackgrass [7, 17]: 0; Plant response rating, Galium [8, 16]: 0; Plant response rating, Galium [8, 17]: 0; Plant response rating, Barnyardgrass [9]: 0; Plant response rating, Ducksalad [10]: 0; Plant response rating, Rice (rice (Oryza sativa)): 0; Plant response rating, Sedge, Umbrella [11]: 0
CC(=O)Oc1ccc2cccc(-c3c(OC(C)=O)c(C)nn(C)c3=O)c2c1 [Compound 124] | 20 | 0 | 0 | 0 | 0 | 0 | 0 | 0 | 0 | 0 | 0 | 0 | 20 | 0 | 0 | 0 | 0 | 0 | 0 | 0 | Plant response rating, Barnyardgrass [1, 18]: 30; Plant response rating, Ragweed [4, 15]: 0; Plant response rating, Ryegrass, Italian [5, 12]: 0; Plant response rating, Ryegrass, Italian [5, 18]: 0; Ryegrass, Italian plant response rating [5, 14]: 0; Plant response rating, Ryegrass, Italian [5, 15]: 30; Plant response rating, Wheat [6, 16]: 0; Plant response rating, Wheat [6, 17]: 0; Plant response rating, Blackgrass [7, 16]: 0; Plant response rating, Blackgrass [7, 17]: 0; Plant response rating, Galium [8, 16]: 0; Plant response rating, Galium [8, 17]: 30; Plant response rating, Barnyardgrass [9]: 0; Plant response rating, Ducksalad [10]: 0; Plant response rating, Rice (rice (Oryza sativa)): 0; Plant response rating, Sedge, Umbrella [11]: 0
COc1nn(C)c(=O)c(-c2c(C)sc3ccc(Cl)cc23)c1OS(C)(=O)=O [Compound 135] | 0 | 0 | 0 | 0 | 20 | 0 | 0 | 20 | 30 | 0 | 0 | 0 | 0 | 0 | 20 | 30 | 70 | 30 | 60 | 30 | Plant response rating, Barnyardgrass [1, 18]: 0; Plant response rating, Ragweed [4, 15]: 60; Plant response rating, Ryegrass, Italian [5, 12]: 40; Plant response rating, Ryegrass, Italian [5, 18]: 70; Ryegrass, Italian plant response rating [5, 14]: 20; Plant response rating, Ryegrass, Italian [5, 15]: 60; Plant response rating, Wheat [6, 16]: 0; Plant response rating, Wheat [6, 17]: 0; Plant response rating, Blackgrass [7, 16]: 0; Plant response rating, Blackgrass [7, 17]: 30; Plant response rating, Galium [8, 16]: 60; Plant response rating, Galium [8, 17]: 90; Plant response rating, Barnyardgrass [9]: 0; Plant response rating, Ducksalad [10]: 0; Plant response rating, Rice (rice (Oryza sativa)): 0; Plant response rating, Sedge, Umbrella [11]: 0
